Legend:
Amaranthus = assay: Herbicidal post-emergence action, greenhouse; assay type: in vivo; settings: 320 g of a.i./ha, second series (T27, T28)
Procedure: (§1) Herbicidal Post-Emergence Action
(§2) Seeds of monocotyledonous and dicotyledonous weed and crop plants are placed into sandy loam in wood fibre pots, covered with soil and cultivated in a greenhouse under good growth conditions. 2-3 weeks after sowing, the test plants are treated at the one-leaf stage. The test compounds, formulated as wettable powders (WP), are, in various dosages with a water application rate of 600 l/ha (converted), with 0.2% of wetting agent added, sprayed onto the green parts of the plants. After the test plants were kept in the greenhouse under optimum growth conditions for about 3 weeks, the effect of the preparations is rated visually in comparison to untreated controls (herbicidal effect in percent (%): 100% effect=the plants have died, 0% effect=like control plants).

Avena sativa = assay: Herbicidal post-emergence action, greenhouse; assay type: in vivo; settings: 320 g of a.i./ha, greenhouse (T22-T24)
Procedure: as §1, §2

Lolium = assay: Herbicidal post-emergence action, greenhouse; assay type: in vivo; settings: 320 g of a.i./ha
Procedure: as §1, §2

Setaria = assay: Herbicidal post-emergence action, greenhouse; assay type: in vivo; settings: 320 g of a.i./ha
Procedure: as §1, §2

[1] = system: greenhouse red spider mite (Tetranychus urticae); assay: Tetranychus test (OP-resistant/spray treatment); assay type: in vivo
Procedure: Tetranychus Test (OP-Resistant/Spray Treatment)
To produce a suitable preparation of active compound, 1 part by weight of active compound is mixed with the stated amounts of solvents and emulsifier, and the concentrate is diluted with emulsifier-containing water to the desired concentration.
Discs of bean leaves (Phaseolus vulgaris), which are infested by all stages of the greenhouse red spider mite (Tetranychus urticae), are sprayed with a preparation of active compound of the desired concentration.
After the desired period of time, the activity in % is determined. 100% means that all spider mites have been killed; 0% means that none of the spider mites have been killed.

Summer barley = assay: Container trials with cereals in the greenhouse, without/with safener; settings: in vivo
[2] = system: larvae of the mustard beetle (Phaedon cochleariae); assay: Phaedon test (spray treatment); assay type: in vivo; settings: 100 g/ha
Procedure: Phaedon Test (Spray Treatment) To produce a suitable preparation of active compound, 1 part by weight of active compound is mixed with the stated amounts of solvents and emulsifier, and the concentrate is diluted with emulsifier-containing water to the desired concentration. Discs of Chinese cabbage (Brassica pekinensis) are sprayed with a preparation of active compound of the desired concentration and, after they have dried, populated with larvae of the mustard beetle (Phaedon cochleariae).

Sinapis = assay: Herbicidal post-emergence action, greenhouse; assay type: in vivo; settings: 320 g of a.i./ha, greenhouse (T22)
Procedure: as §1, §2

Meloidogyne incognita = assay: Meloidogyne test; assay type: in vivo; settings: 20 ppm; nematicidal action by formation of galls on lettuce roots
Procedure: To produce a suitable preparation of active compound, 1 part by weight of active compound is mixed with the stated amounts of solvent and emulsifier, and the concentrate is diluted with water to the desired concentration.
Vessels are filled with sand, solution of active compound, Meloidogyne incognita egg/larvae suspension and lettuce seeds. The lettuce seeds germinate and the plants develop. On the roots, galls develop.
After the desired period of time, the nematicidal action is determined in % by the formation of galls. 100%, means that no galls have been found; 0% means that the number of galls on the treated plants corresponds to that of the untreated control.

Stellaria = assay: Herbicidal post-emergence action, greenhouse; assay type: in vivo; settings: 320 g of a.i./ha
Procedure: as §1, §2

Summer wheat = assay: Container trials with cereals in the greenhouse, without/with safener; settings: in vivo
[3] = greenhouse, second series (T25-T28)
[4] = greenhouse, second series (T26, T28)

Structure (SMILES) | herbicidal effect, Amaranthus (Amaranthus) | herbicidal effect, Avena sativa (Avena sativa) | herbicidal effect, Lolium (Lolium; greenhouse (T22-T24)) | herbicidal effect, Lolium (Lolium; [3]) | herbicidal effect, Setaria (Setaria; greenhouse (T22-T24)) | herbicidal effect, Setaria (Setaria; [3]) | Kill rate in % after 5d ([1]; 500 g/ha) | Summer barley observed (%) (Summer barley) | Kill rate in % after 7d [2] | Kill rate in % after 5d ([1]; 100 g/ha) | herbicidal effect, Sinapis (Sinapis) | Effect in % after 14d (Meloidogyne incognita) | herbicidal effect, Stellaria (Stellaria; greenhouse (T23)) | herbicidal effect, Stellaria (Stellaria; [4]) | Summer wheat observed (%) (Summer wheat)
CCc1cc(C)cc(Br)c1C1=C(OC(=O)C(C)(C)C)C2CCCN2C1=O (centres unmarked) [I-b-1] | 70% | 90% | 90% | 100% | 90% | 100% |  |  |  |  |  |  |  |  | 
CCOC(=O)OC1=C(c2c(Br)cc(C)cc2CC)C(=O)N(CC)C1C (centres unmarked) [I-c-7] |  | 80% | 90% |  | 100% |  | 90% | 10% |  |  |  |  |  |  | 
CCc1cc(C)cc(Br)c1C1=C(O)C(CC)N(C)C1=O (centres unmarked) [I-a-6] |  | 80% | 100% |  | 100% |  |  |  | 100% | 80% | 70% |  |  |  | 
CCc1cc(C)cc(Br)c1C1=C(O)C2CCCN2C1=O (centres unmarked) [I-a-1] | 100% | 90% | 100% | 90% | 90% | 90% |  |  |  |  |  | 80% | 70% | 70% | 
CCc1cc(C)cc(Br)c1C1=C(O)CN(C2CC2)C1=O [I-a-7] |  | 90% | 100% | 100% | 100% | 80% |  |  | 100% |  | 70% |  |  | 80% | 
CCc1cc(C)cc(Br)c1C1=C(OC(=O)C(C)C)C(C)(C)NC1=O [I-b-2] |  | 90% | 100% |  | 100% |  |  |  |  |  | 70% |  |  |  | 
CCc1cc(C)cc(Br)c1C1=C(O)C(C)N(CC)C1=O (centres unmarked) [I-a-5] |  | 80% | 90% |  | 100% |  |  |  |  | 90% |  |  |  |  | 
CCOC(=O)OC1=C(c2c(Br)cc(C)cc2CC)C(=O)N(C)C1CC (centres unmarked) [I-c-6] |  | 80% | 90% | 80% | 100% | 80% |  |  |  | 70% |  |  |  | 70% | 15%

— patent US20070225170A1, “2-Halo-6-Alkylphenyl-Substituted Tetramic Acid Derivatives” (BAYER CROPSCIENCE AKTIENGESELLSCHAFT, priority 2003, published 2007)
